Values quoted from earlier work as cited in patent publication US20110256545A1, “mRNA expression-based prognostic gene signature for non-small cell lung cancer” (priority 2010, published 2011).
“Also recorded” adds a separate entry of the source.

Tested on: NCI-60 cell lines
Settings: the value is the cell line; for Resistant lung cancer cell lines: NCI-60 lung cancer (LC) cell lines classed as resistant to the agent; for Sensitive lung cancer cell lines: NCI-60 lung cancer (LC) cell lines classed as sensitive to the agent

| Compound | Resistant lung cancer cell lines | Sensitive lung cancer cell lines |
| --- | --- | --- |
| N.N.O=C([O-])C1(C(=O)[O-])CCC1.[Pt+2] [Carboplatin] | LC: EKVX | LC: NCI_H460; also recorded: LC: NCI_H522 |
| N.N.[Cl][Pt][Cl] [Cisplatin] | LC: NCI_H226; also recorded: LC: EKVX | LC: HOP_62; also recorded: LC: NCI_H460 |
| COc1cc([C@@H]2c3cc4c(cc3[C@@H](O[C@@H]3O[C@@H]5CO[C@@H](C)O[C@H]5[C@H](O)[C@H]3O)[C@H]3COC(=O)[C@H]23)OCO4)cc(OC)c1O [Etoposide] | LC: EKVX | LC: HOP_62; also recorded: LC: NIC_H460 |
| CC(=O)O[C@H]1C(=O)[C@@]2(C)[C@H]([C@H](OC(=O)c3ccccc3)[C@]3(O)C[C@H](OC(=O)[C@H](O)[C@@H](NC(=O)c4ccccc4)c4ccccc4)C(C)=C1C3(C)C)[C@]1(OC(C)=O)CO[C@@H]1C[C@@H]2O [Paclitaxel] | LC: HOP_92; also recorded: LC_EKVX | LC: NCI_H460; also recorded: LC: NCI_H522 |
